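Five compound concentrations were applied to cells in 96-well plates for 48 hours; endpoints were derived by simple linear interpolation of the resulting dose-response curve. TGI denotes the concentration required for complete inhibition of growth.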 A value given as a limit tells only on which side of the number the result lay.

Some test systems named below: TK-10 renal; SN12C renal; HS 578T breast; KM12 colon; COLO 205 colon; OVCAR-5 ovarian; OVCAR-4 ovarian; 786-0 renal; CCRF-CEM leukemia; MDA-MB-231 breast; U251 CNS.
Holding throughout (assay): inhibition of tumour cell growth, NCI panel, 48 h

As to `COc1cc(C(=O)N(Cc2cccnc2)C(=S)N(Cc2cccnc2)C(=O)c2cc(OC)c(OC)c(OC)c2)cc(OC)c1OC`, the TGI in the assay with TK-10 renal is over 100 µM; in the assay with SN12C renal, over 100 µM; with HS 578T breast, over 100 µM; with KM12 colon it was 56.7 µM; in the assay on COLO 205 colon, over 100 µM; in the assay with OVCAR-5 ovarian, over 100 µM. Also, the TGI was 43.5 µM in the assay with OVCAR-4 ovarian, over 100 µM in the assay with 786-0 renal and over 100 µM with CCRF-CEM leukemia.

Consider `COc1cc(/C=C2/C[C@H]3[C@@H]4CC=C5C[C@@H](O)CC[C@]5(C)[C@H]4CC[C@]3(C)NC2=O)cc(OC)c1OC`, for which the TGI is over 55.7 µM in the assay on MDA-MB-231 breast; over 82.1 µM in the assay with TK-10 renal; over 64.2 µM in the assay on SN12C renal; over 100 µM in the assay with KM12 colon; over 57.9 µM in the assay with COLO 205 colon; over 75.7 µM in the assay with OVCAR-5 ovarian. The TGI in the assay on OVCAR-4 ovarian is over 86.5 µM; with U251 CNS, over 60.1 µM; with 786-0 renal, 57.1 µM; in the assay with CCRF-CEM leukemia, over 100 µM.

Take `N#CC(NC12CC3CC(CC(C3)C1)C2)c1ccccc1C(F)(F)F` (configuration not stated): the TGI with TK-10 renal, with SN12C renal, in the assay with KM12 colon, in the assay with COLO 205 colon, in the assay on OVCAR-5 ovarian and in the assay with OVCAR-4 ovarian was over 100 µM each time. In the assay on CCRF-CEM leukemia, the TGI was over 100 µM.

On to `COCN(CCC1=CCCCC1)C(=O)OC`, for which the TGI in the assay on MDA-MB-231 breast, in the assay on TK-10 renal, in the assay on HS 578T breast, in the assay on KM12 colon, with COLO 205 colon and with OVCAR-5 ovarian was over 100 µM throughout. Besides, the TGI in the assay with OVCAR-4 ovarian, with U251 CNS and in the assay on 786-0 renal was over 100 µM in each case.

As to `COC1C=CC(O)C(CO)O1` (configuration not stated), the TGI with TK-10 renal, with SN12C renal, in the assay with KM12 colon, in the assay on OVCAR-5 ovarian, in the assay on OVCAR-4 ovarian and in the assay with U251 CNS was over 100 µM throughout. In the assay with CCRF-CEM leukemia, this compound showed a TGI of over 100 µM.

For the compound `C=CCCN1CCc2c([nH]c3ccccc23)C1C(=O)O` (configuration not stated), the TGI in the assay on TK-10 renal, in the assay on SN12C renal, with KM12 colon, in the assay with COLO 205 colon, in the assay on OVCAR-5 ovarian and in the assay with OVCAR-4 ovarian was over 100 µM each time. In addition, the TGI with U251 CNS and in the assay with CCRF-CEM leukemia was over 100 µM throughout.

Take `O=C(NI1OC(=O)c2ccccc21)c1ccc(Cl)cc1`: the TGI in the assay on MDA-MB-231 breast, in the assay on TK-10 renal, in the assay on SN12C renal, with KM12 colon, in the assay on COLO 205 colon and with OVCAR-5 ovarian was over 100 µM each time. For the same compound, the TGI in the assay with OVCAR-4 ovarian, with U251 CNS, with 786-0 renal and in the assay on CCRF-CEM leukemia was over 100 µM throughout.

As for `NC(N)=NCCC[C@H](N)C(=O)NCC(=O)N[C@@H](CC(=O)O)c1ncc(NC(=O)C(F)(F)F)o1`, the TGI in the assay on TK-10 renal, with HS 578T breast, in the assay with KM12 colon, in the assay on COLO 205 colon, in the assay on OVCAR-5 ovarian and in the assay on OVCAR-4 ovarian was over 25 µM each time. Moreover, the TGI in the assay on U251 CNS, in the assay on 786-0 renal and in the assay on CCRF-CEM leukemia was over 25 µM each time.

In the case of `O=C(c1ccc(N=Cc2ccccc2O)cc1)c1ccc(N=Cc2ccccc2O)cc1`, the TGI in the assay on MDA-MB-231 breast, in the assay on TK-10 renal, with KM12 colon, in the assay on COLO 205 colon, in the assay on OVCAR-5 ovarian and with OVCAR-4 ovarian was over 100 µM throughout. In addition, the TGI in the assay with U251 CNS and with 786-0 renal was over 100 µM each time.

With `Cc1cccc(N=NC(=O)NNc2cccc(C)c2C)c1C`, the TGI with MDA-MB-231 breast, with TK-10 renal, in the assay with SN12C renal, in the assay on OVCAR-5 ovarian, with OVCAR-4 ovarian and in the assay on U251 CNS was over 100 µM throughout. For the same compound, the TGI in the assay with 786-0 renal was 86 µM.

As for `CC12C(=O)CC(CC1=O)C2(C)C`, the TGI with TK-10 renal, with SN12C renal, with HS 578T breast, with KM12 colon, in the assay on COLO 205 colon and in the assay with OVCAR-5 ovarian was over 100 µM throughout. The TGI in the assay with OVCAR-4 ovarian, in the assay with 786-0 renal and with CCRF-CEM leukemia was over 100 µM throughout.

On to `Cn1cc(NC(=O)c2cc(NC(=O)CN=C(N)N)cn2C)cc1C(=O)NCCC(=N)N`, for which the TGI in the assay on TK-10 renal, with SN12C renal, in the assay with HS 578T breast, with KM12 colon, with COLO 205 colon and in the assay with OVCAR-5 ovarian was over 100 µM in each case. Also, the TGI in the assay with OVCAR-4 ovarian, with U251 CNS, in the assay on 786-0 renal and with CCRF-CEM leukemia was over 100 µM throughout.

`Cc1ccc([N+](=O)[O-])cc1S(=O)(=O)Nc1ccc(C2=NNC(c3ccccc3)C2)cc1` (configuration not stated): the TGI is 77.5 µM with MDA-MB-231 breast; over 100 µM in the assay on TK-10 renal; 59.2 µM with SN12C renal; over 100 µM with HS 578T breast; 34.4 µM in the assay with KM12 colon; 41.4 µM with COLO 205 colon. In addition, the values for the TGI in the assay on OVCAR-5 ovarian, with OVCAR-4 ovarian and with 786-0 renal were over 100 µM, 54.4 µM and 74.1 µM, respectively.

For `Cc1ccc(-c2c(C#N)c(-c3ccc(Cl)cc3)c(C#N)c(=O)n2NS(=O)(=O)c2ccc(C)cc2)cc1`, the TGI in the assay on MDA-MB-231 breast was over 100 µM; with TK-10 renal, over 100 µM; in the assay on SN12C renal, over 100 µM; with KM12 colon, 80.6 µM; in the assay on COLO 205 colon it was over 100 µM; in the assay with OVCAR-5 ovarian, over 100 µM. Also, the TGI with OVCAR-4 ovarian is over 100 µM; in the assay with U251 CNS, over 100 µM; in the assay on 786-0 renal, over 100 µM; in the assay on CCRF-CEM leukemia it was 51.8 µM.
